Data as given in a melting point compilation (Tetko et al.; mined from patent text by program, amines drawn as free bases though some values may be those of a salt).

| SMILES | melting point [°C] |
| --- | --- |
| COc1ccc(-c2nc(-c3cccs3)c[nH]2)cc1Cl | 82 to 85 |
| CC1(C)Oc2cc(N)c([N+](=O)[O-])cc2[C@@H](N2CCCC2=O)[C@@H]1O (relative stereo) | 310 to 313 |
| COC(=O)c1sc(-c2ccc(C#N)cc2)nc1C | 186 to 187 |
| COc1ccc(C(=O)N2CCC(Nc3nccc(-c4c(-c5ccc(F)cc5)nc5occn45)n3)CC2)cc1 | 196 to 197 |
| CCOC(=O)C(C)(Cc1ccc([N+](=O)[O-])cc1)C(=O)OCC | 59 to 61 |
| O=c1[nH]c2sc(Cl)c(Cl)c2[nH]c1=O | > 300 |
| CCOC(=O)CCc1cn(Cc2ccc(OCc3csc(-c4ccccn4)n3)cc2)cc1-c1ccccc1 | 81 to 82 |
| NC(=O)c1nc(-c2c(Cl)cc(C(F)(F)F)cc2Cl)[nH]c1C(N)=O | 306 to 308 |
| CC(c1ccc(O)cc1)c1ccc(O)cc1 | 123 to 125 |
| CN1CCC(Nc2cccc(NC(=O)OC(C)(C)C)c2)CC1 | 124 to 125 |
| CNc1nc(NCc2ccc(NC(=O)C3CCN(Cc4ccccc4)CC3)cc2)c2ccc(C)cc2n1 | 128 |
| O=C1CCCN1CCCN=c1sc2ccc(Cl)cc2s1 | 97 to 97.5 |
| c1ccc(COC[C@H](CP(c2ccccc2)c2ccccc2)P(c2ccccc2)c2ccccc2)cc1 | 88 |
| CCN(CC)c1nsc(N)c1C#N | 87 to 88 |
| O=C1CN(c2c(F)cc(N3C[C@H](CNC(=S)Nc4ccccn4)OC3=O)cc2F)CN1 | 194 to 196 |
| CC(C)CC(NC(=O)C(C)CS)C(=O)O (stereo not drawn) | 66 to 71 |
| Cn1nc2c(-c3ccc(Cl)cc3Cl)cccc2c1-c1nnco1 | 199 to 201 |
| COC(=S)c1ccncc1Cc1ccc(OC)cc1 | 99 to 100 |
| O=C1NC(=O)c2ccc(Br)cc2/C1=C/c1cc(Br)c(O)c(Br)c1 | 167 to 168 |
| N=C1C=CC=CC1Cc1cccc2c1NCC2 (stereo not drawn) | 62 to 63 |
| OCc1ccc2c(c1)COC2c1ccc(F)cc1 (stereo not drawn) | 101 to 104 |
| COc1ccc(OC)c(COc2ccc3nc[nH]c(=O)c3c2)c1 | 155 to 158 |
| Cc1cccc2c1N(CC(=O)N1CC3CCC(CC3)C1)CC(NC(=O)Nc1cccc(Br)c1)N=C2c1ccccc1F (stereo not drawn) | > 250 |
| Cc1nn(-c2c(Cl)cc(C(F)(F)F)cc2Cl)nc1C(=O)O | 185 to 186 |

| SMILES | melting point [°C] |
| --- | --- |
| COc1ccc(OC)c(C(=O)Nc2ccc(N3CCOCC3)cc2C(C)=O)c1 | 172 to 174 |
| COCc1nc(N)nc(N)c1-c1c(Cl)cccc1Cl | 204 to 207 |
| Cn1nc(-c2ccc(F)cc2)c(-c2ccncc2)c1CCCc1ccc(N)cc1 | 80.5 to 81.1 |
| CCC[C@@H]1O[C@](/C=C/C2CC2)(C(F)(F)F)c2cc(Cl)ccc2NC1=O (relative stereo) | 165 to 167 |
| CC(C)=CCN(CC=C(C)C)Cc1noc(-c2ncn3c2[C@@H]2CCCN2C(=O)c2c(Cl)cccc2-3)n1 | 137 to 140 |
| CNc1nc(-c2cccc(NC(=O)c3ccc(Cl)c(Cl)c3)c2)c2cc(OC)c(OC)cc2n1 | 134 to 136 |
| NS(=O)(=O)c1cc2c(s1)SC(CCO)CN2 (stereo not drawn) | 145 to 147 |
| CC(=O)OC1CSC(Oc2cccc(-c3ncccc3F)c2)C(OC(C)=O)C1OC(C)=O (stereo not drawn) | 51 |
| CCCCCCCOc1cc(F)nc(N)n1 | 30 to 32 |
| O=C1CCCN1CCCNCc1ccc(-c2cc3ncnc(Nc4ccc5[nH]ccc5c4)c3s2)cc1 | 139 to 146 |
| O=C1NCc2c1cc1ccc3c(c1c2-c1ccc(Br)cc1)OCO3 | 273 to 274 |
| COc1cccc(N2CCN(C[C@H]3COc4ccc5nc(C)ccc5c4O3)CC2)c1 | 90 to 91 |
| CC(CC(=O)c1ccc(C(N)=S)cc1)C(=O)N1CCC(OCC(=O)OC(C)(C)C)CC1 (racemic) | 152 to 155 |
| Cc1cc(-c2cc(C(F)F)n3ncc(C(=O)Nc4cccc(S(=O)(=O)N5CCOCC5)c4)c3n2)ccc1C(F)(F)F | 261 |
| COC(=O)CN1C(=S)CN=C(c2ccccc2Cl)c2ccccc21 | 183 to 184 |
| O=[N+]([O-])c1cn(-c2cccnc2)nc1Cl | 139 to 142 |
| CC1(C)CCCN(C2c3cc4nonc4cc3OC(C)(C)C2O)C1=O (stereo not drawn) | 114 to 115 |
| Cn1c(=O)oc2cc([N+](=O)[O-])cc(F)c21 | 118 to 119 |
| CCOC(=O)C1(C(=O)OCC)CCNC(=O)C1CCO (stereo not drawn) | 120 to 121 |
| Cc1ccc2ncc3nc(C(F)(F)F)n(C)c3c2c1 | 220 to 223 |
| CCOC(=O)n1[nH]c(=O)c2c([N+](=O)[O-])cccc21 | 234 to 236 |
| COc1cc2c(s1)c(=O)c(SC)cn2C | 185 to 187 |
| Cn1cc(-c2ccnnc2)ccc1=O | > 250 |
| CCOC(=O)C1COc2ccc(NC(C)=O)cc2O1 (stereo not drawn) | 138 to 140 |

| SMILES | melting point [°C] |
| --- | --- |
| CCC1(CCOCCNC(=O)NC2CCCCC2)Nc2cnc(C)c(C)c2N1 (stereo not drawn) | 187 to 189 |
| COC1(OC)C2(Cl)C(Cl)=C(Cl)C1(Cl)C(O)C2O (stereo not drawn) | 160 to 162 |
| Cc1nc2c(s1)-c1nc(Nc3ccc(N(C)C)cc3)ncc1CC2 | 176 to 177 |
| O=Cc1cc2n(n1)CCOC2 | 91 |
| COC(=O)c1cc(C(=O)N2CCCOCC2)c2cc(Cc3ccc(F)cc3)cnc2c1O | 136 to 137 |
| OC1CCC(Oc2ccc3[nH]ncc3c2)CC1 (stereo not drawn) | 112 to 118 |
| c1ccc2c(c1)ncc1nc(C3CCC3)[nH]c12 | 191 to 192 |
| COc1cc2c(cc1S(C)(=O)=O)nc(C)n2C(C)C | 161 to 165 |
| CCCCCCC(C(C)O)n1c(C)nc(C(N)=O)c1N (stereo not drawn) | 142 to 144 |
| COC(=O)C1C=CCn2c(=O)n(CCl)c(=O)n21 (stereo not drawn) | 164 to 165 |
| COc1ccc(NC2=NC(C)(C)Cc3cc(OC)c4c(c32)CC(C)(C)O4)cc1 | 139 to 140 |
| COc1ccc(CNC2SC(=O)NC2=O)cc1 (stereo not drawn) | 140 to 142 |
| COc1cc2ccc(C3CO3)cc2cc1OC (stereo not drawn) | 115 to 117 |
| N#Cc1nn(-c2c(Cl)cc(C(F)(F)F)cc2Cl)c(N)c1-c1ccsc1 | 210 to 212 |
| CCOC(=O)C(=CNc1ccc(C)cc1CO)C(=O)OCC | 92 to 95 |
| COc1cc2c(c(OC)c1)C1CCC3(C)C(O)CCC3C1CC2 (stereo not drawn) | 53 to 55 |
| Cc1cc2occc2cn1 | 55 to 56 |
| O=[N+]([O-])c1cccc(-c2cc3c(Cl)ncnc3o2)c1 | 196 to 205 |
| COc1ccc(Cl)c2c1CCC(CCl)=C2 | 68 to 69.5 |
| CN1Cc2c(C(=O)OCC3CC3)ncn2-c2cccc(Cl)c2C1=O | 194 to 195 |
| CCc1cn2nc(C)ccc2n1 | 53 to 55 |
| COc1ccc(CN(C)CCOc2ccc(NC(=O)c3cccc4c(=O)c5cc(SC)ccc5[nH]c34)cc2)cc1OC | 160 |
| COCCOc1ccc(CCCO)c(Oc2ncc(C(F)(F)F)cc2Cl)c1 | 70 to 71 |

The next lines start with the values.

| melting point [°C] | SMILES |
| --- | --- |
| 126 to 128 | O=C(NC1CCN(CCC2CCOc3ccccc32)CC1)c1cccnc1 (stereo not drawn) |
| 120 to 122 | Cc1[nH]c2ccc(/C=C/C(=O)OCc3ccccc3)cc2c1Cn1ccnc1 |
| 133 | CCOC(=O)CCC(S)COC(=O)C1=C(C)NC(C)=C([N+](=O)[O-])C1c1ccccc1OCc1ccccc1 (stereo not drawn) |
| 206 to 211 | CN1C(=O)N2C(=NC1(C)C)N(C(=O)Nc1ccc(Cl)cc1)c1ccccc12 |
| 147 | Cc1cc(C2(O)C(=O)N(Cc3ccccc3)c3ccccc32)cc(C)c1O[Si](C)(C)C(C)(C)C (stereo not drawn) |
| 111 to 114 | CCn1c2ccc(C)cc2c2ccc3ccccc3c21 |
| 132 | OCc1nn(-c2ccccc2Cl)cc1-c1ccccc1 |
| > 400 | O=C(O)c1ccc2c(=O)c3cc(C(=O)O)ccc3oc2c1 |
| 124 to 127 | CCOC(=O)C=Cc1ccc(Cl)cc1NS(=O)(=O)c1ccc(C)cc1 |
| 195 to 196 | COC(=O)c1ccc(Oc2c(C)n(CC(=O)O)c3ccc(F)cc23)cc1 |
| 55 to 58 | CC(C)CCc1c(-c2ccc(S(C)(=O)=O)cc2)cnn(-c2ccc(F)c(F)c2)c1=O |
| 53.5 | CCCCN(CCCC)CCCOc1ccc(S(=O)(=O)c2c(-c3ccccc3)noc2C(C)C)cc1 |
| 297 to 300 | O=C(O)Cc1ccc(Cc2n[nH]c3c2c(=O)n(-c2ccccc2)c2ncccc32)cc1 |
| 146 to 148 | CC(=O)c1c(C)[nH]c(C(C)c2ccccc2)c1C (stereo not drawn) |
| 130 to 132 | C=CCOn1c(=O)c2cc(F)c(F)cc2n(Cc2ccccc2)c1=O |
| 71 to 73 | O=C(CCCCCCN(Cc1ccccc1)C(=O)c1cn2c3c(cccc13)CCC2)NO |

| melting point [°C] | SMILES |
| --- | --- |
| 204 to 206 | CCN1CCN(c2nc(-c3ccc(O)cc3)cc3ccccc23)CC1 |
| 197 to 199 | Cc1ccc(C(=O)NC(NC(=NC#N)Nc2ccccc2)C(Cl)(Cl)Cl)cc1 (stereo not drawn) |
| 93 to 95 | C=C(C)c1cccc(C(C)(C)NSc2nc3ccccc3s2)c1 |
| 147 to 149 | Nc1ccc(Nc2ccc([N+](=O)[O-])cc2S(=O)(=O)CCO)cc1 |
| 100 | Cc1cc(C(C)C(=O)O)ccc1C(=O)c1cccs1 (stereo not drawn) |
| 208 to 210 | Cc1oc(-c2ccccc2)nc1CCNCc1ccc(C[C@@H](C(=O)O)n2cccc2)cc1 |
| 130 | CC(C)(Oc1ccc(Cc2ccccc2)cc1)C(=O)O |
| 138 to 139 | CCCCc1nc(Cl)c(CC(Cc2ccccc2)C(=O)O)n1Cc1ccccc1Cl (stereo not drawn) |
| 150 | COc1ccc2ccc(N3C(=O)c4ccccc4C3CC(=O)CCC(C)C)nc2n1 (stereo not drawn) |
| 192 to 195 | Cc1ccccc1NC(=O)C(Cl)Cl |
| 113 to 114 | COc1ccc(C(=O)N2c3ccccc3C(N3CCSc4ccccc43)CC2C)cc1OC (stereo not drawn) |
| 128 to 131 | COC(=O)c1ccc(N=CC=Cc2ccccc2)cn1 |
| 184 to 186 | CS(=O)(=O)Nc1cc(C(=O)c2ccccc2)ccc1N |
| 61 to 63 | CCOC(=O)C(C)Oc1ccc(Nc2ccc(C(F)(F)F)cc2[N+](=O)[O-])cc1 (stereo not drawn) |
| 185 | O=C(NC(=O)c1ccccc1Cl)Nc1cc(C(F)(F)F)c(Cl)cc1Br |
| 222 to 223 | CNC(=O)C(CNC(=O)c1ccccc1)NC(=O)OC(C)(C)C (stereo not drawn) |
